The values below come from article PMC5514153, “Targeting PTPRZ inhibits stem cell-like properties and tumorigenicity in glioblastoma cells” (Scientific Reports, 2017).

One may read the IC50 as the point on the concentration scale where inhibition reaches its midpoint.

The target in one test is T1, hPTPN6 (Homo sapiens, UniProt P29350).
T1 construct: the catalytic domains of PTPN1 and PTPN6 were expressed as glutathione-S-transferase (GST) fusion proteins; GST (N); made in house; host or cells: Escherichia coli BL21
T1 sequence (P29350 244-515 limits assumed): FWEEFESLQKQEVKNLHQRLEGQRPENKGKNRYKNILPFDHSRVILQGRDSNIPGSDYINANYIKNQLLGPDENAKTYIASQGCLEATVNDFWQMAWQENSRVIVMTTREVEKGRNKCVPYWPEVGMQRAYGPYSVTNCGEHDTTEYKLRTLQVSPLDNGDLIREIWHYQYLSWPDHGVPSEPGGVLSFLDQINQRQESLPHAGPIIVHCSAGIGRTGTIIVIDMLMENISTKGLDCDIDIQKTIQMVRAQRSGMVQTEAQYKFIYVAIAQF
In words: In vitro PTPase assay (DiFMUP), PTPN6. Particulars: 60-min preincubation. Type of test: biochemical. The protocol:
Figure 4 NAZ2329, an allosteric inhibitor of R5 RPTP subfamily members. (A) Structure of NAZ2329. (B) Effect of preincubation of NAZ2329 on its inhibitory activity against PTPRZ. Recombinant human PTPRZ1 enzyme (the whole intracellular region) was premixed with NAZ2329 for the indicated times and followed by addition of a fluorogenic DiFMUP (non-specific PTP substrate, 6,8-difluoro-4-methylumbiliferyl phosphate) to measure PTP inhibitory activity. (C) Time dependence. The PTPRZ1 enzyme was added to the inhibitor–substrate mixture, and the inhibitory activity was determined at each time point relative to the vehicle control. (D) Reversibility of inhibition. […] The mixture was then 20-fold diluted, and recovered PTP activity was expressed as the relative activity compared with the vehicle-treated enzyme. […] PTPRZ1 enzymes were preincubated with NAZ2329 for 60 min, and the PTP activity was measured using DiFMUP. […]
Recombinant proteins corresponding to the entire intracellular regions (ICRs) of PTPRZ1, PTPRA, and PTPRM were expressed using a baculovirus-silkworm expression system, and purified as described. The ICRs of PTPRG, PTPRS, and PTPRB and the catalytic domains of PTPN1 and PTPN6 were expressed as glutathione-S-transferase (GST) fusion proteins from each pGEX plasmid in Escherichia coli strain BL21 (ref. [6]). […]

The target of a further test is T2, hPTPRZ1 (D1) (Homo sapiens, UniProt P23471).
T2 construct: human PTPRZ1-D1 (amino acid residues, 1,698-2,000)
Kind of test: In vitro PTPase assay (DiFMUP), PTPRZ1 D1 domain. The class given is biochemical. As to conditions: first PTP domain fragment.

Molecules are shown by their SMILES.

T2 sequence (P23471 1698-2000 limits assumed): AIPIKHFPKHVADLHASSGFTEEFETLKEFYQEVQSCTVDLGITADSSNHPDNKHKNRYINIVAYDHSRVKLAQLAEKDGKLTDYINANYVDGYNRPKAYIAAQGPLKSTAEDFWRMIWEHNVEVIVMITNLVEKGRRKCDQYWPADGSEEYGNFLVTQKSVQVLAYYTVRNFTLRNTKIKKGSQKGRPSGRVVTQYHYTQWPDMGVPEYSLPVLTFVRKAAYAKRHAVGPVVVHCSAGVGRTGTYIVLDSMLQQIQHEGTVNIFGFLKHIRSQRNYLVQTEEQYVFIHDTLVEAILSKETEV

In the case of `CCOc1ccc(C(F)(F)F)cc1CSc1ccsc1C(=O)NS(=O)(=O)c1ccccc1` [NAZ2329], the results for the concentration for half-maximal inhibition (IC50) against hPTPN6 and against hPTPRZ1 (D1) were 15.2 µM and 1.1 µM, respectively.
